System: 947758-054-R-J2-PDC spheroid growth, percent test/control
Assay: Anticancer human tumor 947758-054-R-J2-PDC patient-derived colon adenocarcinoma cell line growth inhibition [CLK]
Conditions: spheroids with HUVEC and MSC; for IC50: curve of first compound; for viability, T/C: stronger effect = lower value
Method in brief: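 Patient-derived tumor cells grown as complex spheroids with HUVEC endothelial cells and mesenchymal stem cells, treated with drug combinations. Concentrations descend in half-log steps from near clinical Cmax, or from 10 microM if Cmax unknown.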

[1] = second compound 0.0316 µM, first compound 0.0316 µM
[2] = second compound 0.0316 µM, first compound 0.1 µM
[3] = second compound 0.1 µM, first compound 0.0316 µM
[4] = second compound 0.1 µM, first compound 0.1 µM
[5] = second compound 0.316 µM, first compound 0.0316 µM
[6] = second compound 0.316 µM, first compound 0.1 µM
[7] = second compound 1 µM, first compound 0.0316 µM
[8] = second compound 1 µM, first compound 0.1 µM
[9] = second compound 3.16 µM, first compound 0.0316 µM
[10] = second compound 3.16 µM, first compound 0.1 µM
[11] = second compound 10 µM, first compound 0.0316 µM
[12] = second compound 10 µM, first compound 0.1 µM
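Also: spheroids exposed to compounds for one week before readout.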
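For viability, T/C in this document: 100% = DMSO vehicle control wells.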

Q: `Cn1ncnc1[C@H]1c2n[nH]c(=O)c3cc(F)cc(c23)N[C@@H]1c1ccc(F)cc1` + CNC(=O)c1ccc(Nc2nc(OC3CCCC3)c3c(-c4ccc5nc(C)oc5c4)c[nH]c3n2)c(OC)c1 was tested. Which IC50 (second compound 0.0316 µM) did it give?
A: Its IC50 is greater than 100 nM.

Q: What about the IC50 (second compound 0.1 µM) of the same compound?
A: Its IC50 is greater than 100 nM.

Q: What about the IC50 (second compound 0.316 µM) of the same compound?
A: Its IC50 is 36.7 nM.

Q: And the IC50 (second compound 1 µM)?
A: Its IC50 is less than 0.316 nM.

Q: What about the IC50 (second compound 3.16 µM) of the same compound?
A: The IC50 was less than 0.316 nM.

Q: What about the IC50 (second compound 10 µM) of the same compound?
A: The IC50 was less than 0.316 nM.

Q: What about the viability, T/C (second compound 0.0316 µM, first compound 0.000316 µM) of the same compound?
A: The viability, T/C was 78.7%.

Q: What about the viability, T/C (second compound 0.0316 µM, first compound 0.001 µM) of the same compound?
A: The viability, T/C was 102%.

Q: What about the viability, T/C (second compound 0.0316 µM, first compound 0.00316 µM) of the same compound?
A: The viability, T/C was 84.3%.

Q: And the viability, T/C (second compound 0.0316 µM, first compound 0.01 µM)?
A: The viability, T/C was 96.9%.

Q: What about the viability, T/C [1] of the same compound?
A: Its viability, T/C is 90.4%.

Q: What about the viability, T/C [2] of the same compound?
A: Its viability, T/C is 82.6%.

Q: And the viability, T/C (second compound 0.1 µM, first compound 0.000316 µM)?
A: The viability, T/C was 96.5%.

Q: And the viability, T/C (second compound 0.1 µM, first compound 0.001 µM)?
A: Its viability, T/C is 88.6%.

Q: And the viability, T/C (second compound 0.1 µM, first compound 0.00316 µM)?
A: The viability, T/C was 81.3%.

Q: What about the viability, T/C (second compound 0.1 µM, first compound 0.01 µM) of the same compound?
A: Its viability, T/C is 90.8%.

Q: What about the viability, T/C [3] of the same compound?
A: Its viability, T/C is 84.8%.

Q: What about the viability, T/C [4] of the same compound?
A: The viability, T/C was 58.9%.

Q: And the viability, T/C (second compound 0.316 µM, first compound 0.000316 µM)?
A: Its viability, T/C is 69.7%.

Q: And the viability, T/C (second compound 0.316 µM, first compound 0.001 µM)?
A: The viability, T/C was 65%.

Q: And the viability, T/C (second compound 0.316 µM, first compound 0.00316 µM)?
A: Its viability, T/C is 70.4%.

Q: What about the viability, T/C (second compound 0.316 µM, first compound 0.01 µM) of the same compound?
A: The viability, T/C was 77.9%.

Q: And the viability, T/C [5]?
A: The viability, T/C was 51.4%.

Q: And the viability, T/C [6]?
A: Its viability, T/C is 40.5%.

Q: What about the viability, T/C (second compound 1 µM, first compound 0.000316 µM) of the same compound?
A: Its viability, T/C is 46.1%.

Q: And the viability, T/C (second compound 1 µM, first compound 0.001 µM)?
A: The viability, T/C was 45.1%.

Q: And the viability, T/C (second compound 1 µM, first compound 0.00316 µM)?
A: Its viability, T/C is 42.3%.

Q: What about the viability, T/C (second compound 1 µM, first compound 0.01 µM) of the same compound?
A: The viability, T/C was 49.3%.

Q: And the viability, T/C [7]?
A: Its viability, T/C is 46%.

Q: What about the viability, T/C [8] of the same compound?
A: Its viability, T/C is 24.6%.

Q: What about the viability, T/C (second compound 3.16 µM, first compound 0.000316 µM) of the same compound?
A: The viability, T/C was 38.9%.

Q: What about the viability, T/C (second compound 3.16 µM, first compound 0.001 µM) of the same compound?
A: The viability, T/C was 31.4%.

Q: What about the viability, T/C (second compound 3.16 µM, first compound 0.00316 µM) of the same compound?
A: Its viability, T/C is 38.4%.

Q: What about the viability, T/C (second compound 3.16 µM, first compound 0.01 µM) of the same compound?
A: Its viability, T/C is 42.6%.

Q: What about the viability, T/C [9] of the same compound?
A: Its viability, T/C is 38.6%.

Q: What about the viability, T/C [10] of the same compound?
A: Its viability, T/C is 28.7%.

Q: What about the viability, T/C (second compound 10 µM, first compound 0.000316 µM) of the same compound?
A: Its viability, T/C is 33.4%.

Q: What about the viability, T/C (second compound 10 µM, first compound 0.001 µM) of the same compound?
A: The viability, T/C was 31.8%.

Q: What about the viability, T/C (second compound 10 µM, first compound 0.00316 µM) of the same compound?
A: Its viability, T/C is 32.9%.

Q: And the viability, T/C (second compound 10 µM, first compound 0.01 µM)?
A: The viability, T/C was 48%.

Q: And the viability, T/C [11]?
A: The viability, T/C was 28.9%.

Q: And the viability, T/C [12]?
A: The viability, T/C was 26.8%.

Q: With `O=C(c1cc(Cc2n[nH]c(=O)c3ccccc23)ccc1F)N1CCN(C(=O)C2CC2)CC1` + CNC(=O)c1ccc(Nc2nc(OC3CCCC3)c3c(-c4ccc5nc(C)oc5c4)c[nH]c3n2)c(OC)c1 as the compound, how does the IC50 (second compound 0.0316 µM) read?
A: Its IC50 is greater than 10000 nM.

Q: And the IC50 (second compound 0.1 µM)?
A: Its IC50 is greater than 10000 nM.

Q: What about the IC50 (second compound 0.316 µM) of the same compound?
A: The IC50 was greater than 10000 nM.

Q: What about the IC50 (second compound 1 µM) of the same compound?
A: The IC50 was greater than 10000 nM.

Q: What about the IC50 (second compound 3.16 µM) of the same compound?
A: Its IC50 is 156 nM.

Q: And the IC50 (second compound 10 µM)?
A: Its IC50 is less than 31.6 nM.

Q: And the viability, T/C [1]?
A: Its viability, T/C is 101%.

Q: What about the viability, T/C [2] of the same compound?
A: Its viability, T/C is 97.3%.

Q: And the viability, T/C (second compound 0.0316 µM, first compound 0.316 µM)?
A: Its viability, T/C is 96.3%.

Q: What about the viability, T/C (second compound 0.0316 µM, first compound 1 µM) of the same compound?
A: The viability, T/C was 93.5%.

Q: What about the viability, T/C (second compound 0.0316 µM, first compound 3.16 µM) of the same compound?
A: The viability, T/C was 113%.

Q: And the viability, T/C (second compound 0.0316 µM, first compound 10 µM)?
A: Its viability, T/C is 80.9%.

Q: What about the viability, T/C [3] of the same compound?
A: Its viability, T/C is 110%.

Q: What about the viability, T/C [4] of the same compound?
A: Its viability, T/C is 102%.

Q: What about the viability, T/C (second compound 0.1 µM, first compound 0.316 µM) of the same compound?
A: The viability, T/C was 100%.

Q: And the viability, T/C (second compound 0.1 µM, first compound 1 µM)?
A: Its viability, T/C is 99.4%.

Q: What about the viability, T/C (second compound 0.1 µM, first compound 3.16 µM) of the same compound?
A: The viability, T/C was 110%.

Q: And the viability, T/C (second compound 0.1 µM, first compound 10 µM)?
A: The viability, T/C was 73.7%.

Q: What about the viability, T/C [5] of the same compound?
A: Its viability, T/C is 94.3%.

Q: And the viability, T/C [6]?
A: The viability, T/C was 94.8%.

Q: And the viability, T/C (second compound 0.316 µM, first compound 0.316 µM)?
A: The viability, T/C was 64.5%.

Q: And the viability, T/C (second compound 0.316 µM, first compound 1 µM)?
A: The viability, T/C was 71.5%.

Q: And the viability, T/C (second compound 0.316 µM, first compound 3.16 µM)?
A: The viability, T/C was 103%.

Q: And the viability, T/C (second compound 0.316 µM, first compound 10 µM)?
A: The viability, T/C was 65%.

Q: What about the viability, T/C [7] of the same compound?
A: Its viability, T/C is 63.2%.

Q: What about the viability, T/C [8] of the same compound?
A: The viability, T/C was 53%.

Q: And the viability, T/C (second compound 1 µM, first compound 0.316 µM)?
A: The viability, T/C was 53.7%.

Q: What about the viability, T/C (second compound 1 µM, first compound 1 µM) of the same compound?
A: Its viability, T/C is 64.1%.

Q: And the viability, T/C (second compound 1 µM, first compound 3.16 µM)?
A: The viability, T/C was 69.2%.

Q: And the viability, T/C (second compound 1 µM, first compound 10 µM)?
A: Its viability, T/C is 35.8%.

Q: What about the viability, T/C [9] of the same compound?
A: The viability, T/C was 56.2%.

Q: And the viability, T/C [10]?
A: Its viability, T/C is 43.6%.

Q: What about the viability, T/C (second compound 3.16 µM, first compound 0.316 µM) of the same compound?
A: Its viability, T/C is 45.4%.

Q: What about the viability, T/C (second compound 3.16 µM, first compound 1 µM) of the same compound?
A: The viability, T/C was 52.7%.

Q: And the viability, T/C (second compound 3.16 µM, first compound 3.16 µM)?
A: Its viability, T/C is 54%.

Q: And the viability, T/C (second compound 3.16 µM, first compound 10 µM)?
A: The viability, T/C was 37.4%.

Q: And the viability, T/C [11]?
A: Its viability, T/C is 47.9%.

Q: And the viability, T/C [12]?
A: The viability, T/C was 40.9%.

Q: What about the viability, T/C (second compound 10 µM, first compound 0.316 µM) of the same compound?
A: The viability, T/C was 41.5%.

Q: And the viability, T/C (second compound 10 µM, first compound 1 µM)?
A: Its viability, T/C is 34.4%.

Q: What about the viability, T/C (second compound 10 µM, first compound 3.16 µM) of the same compound?
A: The viability, T/C was 35.2%.

Q: And the viability, T/C (second compound 10 µM, first compound 10 µM)?
A: Its viability, T/C is 35.1%.

Reference: PubChem BioAssay AID2060605 (Molecular Pharmacology Branch, DTP, NCI, 2025)
